Results as given in patent publication US4558049A, “Antipsycotic benzoxazines” (Farmitalia Carlo Erba S.p.A., priority 1982, dated 1985).
Like-named read-outs stand apart in the source and are kept apart here.

Legend:
catalepsy in rats = experiment: Catalepsy induction in rats; assay type: in vivo; conditions: rat, p.o.
[1] = LD50 / acute toxicity in mice; conditions: mouse, in vivo, po, approximate LD50
[2] = tested on: apomorphine-induced climbing behaviour in mice; experiment: Apomorphine antagonism in mice (apomorphine-induced climbing behaviour, Protais et al.); assay type: in vivo; conditions: Mus musculus, po
[3] = Reduction of body temperature in mice (Irwin technique); conditions: p.o.
[4] = tested on: rats with 6-OHDA induced unilateral lesions of the dopaminergic nigrostriatal pathway; experiment: Turning-behaviour (antagonism to rotational behaviour by dopaminergic agents in rats with 6-OHDA induced unilateral lesions); assay type: in vivo; conditions: rat, p.o.
[5] = tested on: conditioned Avoidance Response in the rat; experiment: C.A.R. test (interference with conditioned Avoidance Response in the rat); assay type: in vivo; conditions: p.o.
[6] = tested on: spontaneous activity in mice; experiment: Reduction of spontaneous activity in mice (Irwin technique); conditions: p.o.
[7] = tested on: neuromuscular coordination in the rat; experiment: Rotarod test (neuromuscular coordination in the rat); assay type: in vivo; conditions: p.o.
[8] = tested on: spontaneous activity in mice; conditions: mouse, in vivo, po
[9] = mouse, in vivo, po

SMILES: O=C1Nc2ccc(Br)cc2C2(CCN(CCCC(=O)c3ccc(F)cc3)CC2)O1 [Example 1, 1'-[3-(4-Fluorobenzoyl)propyl]spiro-(3,1-benzoxazine-6-bromo-4(2H)4'-piperidin)-2-one]
- Min. active dose in Catalepsy induction (catalepsy in rats): > 200 mg/kg p.o.
- LD50 [1]: > 800 mg/kg
- ED50 [2]: 1.7 mg/kg
- Reduction of body temperature in mice (min. active dose) [3]: 100 mg/kg p.o.
- Min. active dose in Turning-behaviour [4]: > 20 mg/kg p.o.
- Min. active dose in C.A.R. test [5]: 25 mg/kg p.o.
- Reduction of spontaneous activity in mice (min. active dose) [6]: 12.5 mg/kg p.o.
- Min. active dose in Rotarod test [7]: > 50 mg/kg p.o.

SMILES: O=C1Nc2ccc([N+](=O)[O-])cc2C2(CCN(CCCC(=O)c3ccc(F)cc3)CC2)O1 [Example 3, 1'-[3-(4-fluorobenzoyl)propyl]spiro-(3,1-benzoxazine-6-nitro-4(2H)4'-piperidin)-2-one]
- Min. active dose in Catalepsy induction (catalepsy in rats): 200 mg/kg p.o.
- LD50 [1]: > 800 mg/kg
- ED50 [2]: 2.7 mg/kg
- Reduction of body temperature in mice (min. active dose) [3]: 110 mg/kg p.o.
- Min. active dose in Turning-behaviour [4]: > 15 mg/kg p.o.
- Min. active dose in C.A.R. test [5]: 20 mg/kg p.o.
- Reduction of spontaneous activity in mice (min. active dose) [6]: 15 mg/kg p.o.
- Min. active dose in Rotarod test [7]: 50 mg/kg p.o.

SMILES: O=C(CCCN1CCC(O)(c2ccc(Cl)cc2)CC1)c1ccc(F)cc1 [Haloperidol, haloperidol, reference compound]
- Min. active dose in Catalepsy induction (catalepsy in rats): 0.5 mg/kg p.o.
- LD50 [1]: ~75 mg/kg
- ED50 [2]: 0.2 mg/kg
- Reduction of spontaneous activity in mice (min. active dose) [8]: 0.78 mg/kg p.o.
- Min. active dose in Turning-behaviour [4]: 0.5 mg/kg p.o.
- Min. active dose in C.A.R. test [5]: 0.5 mg/kg p.o.
- Min. active dose in Rotarod test [7]: 0.5 mg/kg p.o.
- Reduction of body temperature in mice (min. active dose) [9]: 3.12 mg/kg p.o.
